PubChem BioAssay (NCI)
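Method: 48-hour compound exposure of cells in 96-well plates, five concentrations, linear interpolation of endpoints. TGI marks complete inhibition of growth.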

Experiments:
Assay in all cases: NCI-60 cell line screen, 48 h
[1] = system: NCI/ADR-RES ovarian
[2] = system: SK-OV-3 ovarian
[3] = system: COLO 205 colon
[4] = system: NCI-H226 lung
[5] = system: MOLT-4 leukemia
[6] = system: SNB-19 CNS
[7] = system: HL-60(TB) leukemia
[8] = system: UACC-62 melanoma
[9] = system: SF-539 CNS
[10] = system: NCI-H522 lung
[11] = system: A498 renal
[12] = system: K-562 leukemia
[13] = system: HOP-62 NSCLC

SMILES | TGI [1] [µM] | TGI [2] [µM] | TGI [3] [µM] | TGI [4] [µM] | TGI [5] [µM] | TGI [6] [µM] | TGI [7] [µM] | TGI [8] [µM] | TGI [9] [µM] | TGI [10] [µM] | TGI [11] [µM] | TGI [12] [µM] | TGI [13] [µM]
COc1cccc(NCC(=O)Nn2c(-c3ccccc3)nc3ccccc3c2=O)c1 | > 100 | > 100 | > 100 | > 100 | > 100 | > 100 | > 100 | > 100 | > 100 | > 100 | 85 | > 100 | > 100
Cc1cccc2sc(NC(=O)c3cc([N+](=O)[O-])ccc3Cl)nc12 | > 24.2 | > 100 | > 71.3 | > 64.1 | > 100 | > 100 | > 100 | > 100 | 6.25 | 4.1 | > 100 | > 100 | > 73.1
CCOC(=O)CCC(NC(=O)c1ccc(CNc2nc3cc(N)cc(N)c3nc2-c2ccccc2)cc1)C(=O)OCC (stereo not given) | > 100 | > 100 | > 100 | > 100 | 9.43 | > 100 | > 45 | > 100 | > 100 | > 100 | > 100 | > 100 | > 100
COc1ccc(/C=C2\CN(C)CC3=C2OC(N)=C(C#N)C3c2ccc(OC)cc2)cc1 (stereo not given) | > 100 | > 100 | > 100 | > 100 | > 49 | > 100 | > 27.6 | > 100 | > 100 | > 83.1 | > 100 | > 100 | > 100
Cc1ccc(C(=O)CC(Cl)=C(Cl)Cl)cc1 | > 100 | > 100 | > 100 | > 100 | 47 | > 100 | > 100 | > 100 | > 100 | > 100 | > 100 | > 100 | > 100
